Where a name gives a salt, the structure may show the parent alone.
Test system: intimal hypertrophy
Assay: Intimal Hypertrophy Inhibiting Activity in Rats, test (2): balloon denudation of left carotid artery
Format: in vivo, male S.D. rats
Conditions: Dose 30 mg/kg, oral once a day, 14 days after denudation
Experimental: (§1) Pharmacological Test (Intimal Hypertrophy Inhibiting Activity in Rats)
(§2) By use of various compounds which serve as active ingredients of the present invention, the following tests (1) and (2) were performed in accordance with the method described in Journal of Clinical Investigation,85 (1990) 2004.
Groups of 13- to 14-week-old male S.D. rats were used. A 2F balloon catheter was inserted in each rat under etherification through the right iliac artery to the left carotid artery. While the balloon was inflated, the endothelium of the left caroid artery was denuded. Subsequently, the balloon catheter was removed, and an antibiotic was added dropwise into the abdominal cavity, followed by saturing. Each drug was suspended in 0.5% methylcellulose, and a dose of 10 ml/kg was orally administered once a day, starting from 2 hours after denudation. To the controls were administered 0.5% methylcellulose.
The rats were sacrificed 14 days after denudation The left carotid artery was removed and fixed, through perfusion, with 10% buffered formalin. Each sample was divided into six segments and the segments were processed by a customary method to thereby prepare paraffin sections. Six specimens of the sections from each rat were stained with hematoxylin-eosin. The area of the neoplastic intima and that of the media were measured, and assessment was performed in terms of percentage of intimal hypertrophy inhibition as determined from the intima/media area ratios, using as standards the data from the groups to which drugs had not been administered.
For `Nc1ccc(C(=C2C(=O)Nc3ccccc32)c2ccc(N)cc2)cc1` [Compound 33, 3-[bis(4-aminophenyl)methylene]-oxindole], the “Inhibition (%) of intimal hypertrophy (intima/media area ratio)” value (shortened to “Inhibition (%) … (intima/media area ratio)”) was 32.7%.
In the case of `O=C1Nc2ccccc2C1=C(c1ccccn1)c1ccccn1` [Compound 35, 3-(di-2-pyridylmethylene)-oxindole], the “Inhibition (%) … (intima/media area ratio)” value is reported as 36.8%.
With `O=C1Nc2ccccc2C1=Cc1ccccn1` [Compound 38] the “Inhibition (%) … (intima/media area ratio)” value was 42.0%.

Test system: intimal hypertrophy
Assay: not given
Conditions: background statement; cited from earlier work
In the case of `COc1ccc(/C=C/C(=O)Nc2ccccc2C(=O)O)cc1OC` [a, Tranilast, reference compound], the “activity as intimal hypertrophy inhibitor” value is given as “weak activity”.

Test system: intimal hypertrophy
Assay: Intimal Hypertrophy Inhibiting Activity in Rats, test (1): balloon denudation of thoracic aorta
Format: in vivo, male S.D. rats
Conditions: Rattus norvegicus, 336 h, Dose 30 mg/kg, oral once a day, 14 days after denudation, read-out: Inhibition (%) of intimal hypertrophy (intima/media thickness ratio)
Experimental: as §1, §2
Groups of 14- to 15-week-old male S.D. rats were used. A 3F balloon catheter was inserted in each rat, under etherification, through the right iliac artery to the aorta. While the balloon was inflated, the endothelium of the thoracic aorta was denuded. Subsequently, the balloon catheter was removed, and an antibiotic was added dropwise into the abdominal cavity, followed by saturing. Each drug was suspended in 0.5% methylcellulose, and a dose of 10 ml/kg was orally administered once a day, starting from 2 hours after denudation. To the controls were administered 0.5% methylcellulose.
The rats were sacrificed 14 days after denudation. The thoracic aorta was removed and fixed with 10% neutrally-buffered formalin. Six segments cut out from the lower part of each sample were processed by a customary method to thereby prepare paraffin sections. Six specimens of the sections from each rat were stained with hematoxylin-eosin. The thickness of the neoplastic intima at the site of maximal hypertrophy and that of the media at the same site were measured, and the ratio of intimal thickness to media thickness was calculated. Assessment was performed in terms of percentage of intimal hypertrophy inhibition as determined from the intima/media thickness ratios, using as standards the data from the groups to which drugs had not been administered.
The following four different compounds (a)-(d) were used as comparative compounds: […]
`COc1ccc(C(=C2C(=O)Nc3ccccc32)c2ccc(OC)cc2)cc1` [Compound 1, 3-[bis(4-methoxyphenyl)methylene]-oxindole] showed an inhibition in vivo at 30 mg/kg of 33.2%.
For `Cc1ccc(C(=C2C(=O)Nc3ccccc32)c2ccc(C)cc2)cc1` [Compound 2], the inhibition in vivo at 30 mg/kg was 36.5%.
Compound `O=C1Nc2ccccc2C1=C(c1ccc(O)cc1)c1ccc(O)cc1` [Compound 5] has an inhibition in vivo at 30 mg/kg of 14.8%.
Compound `CN(C)CCOc1ccc(C(=C2C(=O)Nc3ccccc32)c2ccc(OCCN(C)C)cc2)cc1` [Compound 6] has an inhibition in vivo at 30 mg/kg of 14.7%.
Work on `O=C1Nc2ccccc2C1=C(c1ccccc1)c1ccccc1` [Compound 7] yielded an inhibition in vivo at 30 mg/kg of 34.2%.
For `COc1ccc(C(=C2C(=O)Nc3cccnc32)c2ccc(OC)cc2)cc1` [Compound 8], the inhibition in vivo at 30 mg/kg was 28.9%.
Work on `CCOC(=O)c1ccc2c(c1)C(=C(c1ccc(C)cc1)c1ccc(C)cc1)C(=O)N2` [Compound 9] yielded an inhibition in vivo at 30 mg/kg of 26.6%.
In the case of `COc1ccc(C(=C2C(=O)Nc3ccc(N(C)C)cc32)c2ccc(OC)cc2)cc1` [Compound 10], the inhibition in vivo at 30 mg/kg is reported as 14.8%.
Work on `Cc1ccc(C(=C2C(=O)Nc3cc(N)ccc32)c2ccc(C)cc2)cc1` [Compound 13] yielded an inhibition in vivo at 30 mg/kg of 10.9%.
Compound `COc1ccc(C(=C2C(=O)N(CCN(C)C)c3ccccc32)c2ccc(OC)cc2)cc1` [Compound 16, 1-dimethylaminoethyl-3-[bis(4-methoxyphenyl)methylene]oxindole.HCl] has an inhibition in vivo at 30 mg/kg of 21.1%.
`COc1ccc(C(=C2C(=O)N(C)c3ccccc32)c2ccc(OC)cc2)cc1` [Compound 17] gave an inhibition in vivo at 30 mg/kg of 20.9%.
In the case of `CCOC(=O)CN1C(=O)C(=C(c2ccc(OC)cc2)c2ccc(OC)cc2)c2ccccc21` [Compound 18], the inhibition in vivo at 30 mg/kg is reported as 34.8%.
For `COc1ccc(C(=C2C(=O)N(CC(=O)N(C)C)c3ccccc32)c2ccc(OC)cc2)cc1` [Compound 20], the inhibition in vivo at 30 mg/kg was 7.2%.
For `CCOC(=O)CCCCCN1C(=O)C(=C(c2ccc(OC)cc2)c2ccc(OC)cc2)c2ccccc21` [Compound 22], the inhibition in vivo at 30 mg/kg was 28%.
With `COC(=O)c1ccc(CN2C(=O)C(=C(c3ccc(OC)cc3)c3ccc(OC)cc3)c3ccccc32)cc1` [Compound 24] the inhibition in vivo at 30 mg/kg was 35.1%.
For `COc1ccc(C(=C2C(=O)N(S(=O)(=O)c3ccc(C)cc3)c3ccccc32)c2ccc(OC)cc2)cc1` [Compound 25, 1-paratoluenesulfonyl-3-[bis(4-methoxyphenyl)methylene]oxindole], the inhibition in vivo at 30 mg/kg was 7.6%.
`COc1ccc(C(c2ccc(OC)cc2)C2C(=O)Nc3ccccc32)cc1` (stereo not shown) [Compound 27, 3-[bis(4-methoxyphenyl)methyl]oxindole] showed an inhibition in vivo at 30 mg/kg of 19.7%.
`Cc1ccc(C(c2ccc(C)cc2)C2C(=O)Nc3ccccc32)cc1` (stereo not shown) [Compound 28] gave an inhibition in vivo at 30 mg/kg of 28.4%.
Work on `COc1ccc(C=C2C(=O)Nc3ccccc32)cc1` [Compound 31, 3-(4-methoxybenzylidene)-oxindole] yielded an inhibition in vivo at 30 mg/kg of 40%.
`COc1cc(C=C2C(=O)Nc3ccccc32)cc(OC)c1O` [Compound 32] showed an inhibition in vivo at 30 mg/kg of 34%.
`COc1ccc(/C=C/C(=O)Nc2ccccc2C(=O)O)cc1OC` [a, Tranilast, reference compound] gave an inhibition in vivo at 30 mg/kg of 7.1%.
`CC(C)c1cc(C=C2C(=O)Nc3ccccc32)cc(C(C)C)c1O` [b, reference compound] gave an inhibition in vivo at 30 mg/kg of -26%.
Work on `CON1C(=O)C(=Cc2cc(C(C)(C)C)c(O)c(C(C)(C)C)c2)c2ccc(Cl)cc21` [c, reference compound] yielded an inhibition in vivo at 30 mg/kg of -8.6%.
For `O=C1Nc2ccc(O)cc2C1=Cc1cc2ccccc2[nH]1` [d, reference compound], the inhibition in vivo at 30 mg/kg was -0.1%.

Same assay, conditions: Rattus norvegicus, 336 h, Dose 100 mg/kg, oral once a day, 14 days after denudation, read-out: Inhibition (%) of intimal hypertrophy (intima/media thickness ratio)
`COc1ccc(C(=C2C(=O)Nc3ccccc32)c2ccc(OC)cc2)cc1` [Compound 1, 3-[bis(4-methoxyphenyl)methylene]-oxindole] showed an inhibition in vivo at 100 mg/kg of 46.6%.
Compound `Cc1ccc(C(=C2C(=O)Nc3ccccc32)c2ccc(C)cc2)cc1` [Compound 2] has an inhibition in vivo at 100 mg/kg of 42.3%.
In the case of `COc1ccc(/C=C/C(=O)Nc2ccccc2C(=O)O)cc1OC` [a, Tranilast, reference compound], the inhibition in vivo at 100 mg/kg is reported as 18.1%.
